Measured values taken from patent publication US9265810B2, “Pharmaceutical composition and methods for modulating immune system, preventing, pretreating and/or treating cancers” (Hong Kong Baptist University, priority 2013, dated 2016).

System: 4T1 murine mammary cancer cells
Procedure: In this example, the average body weight of mice is 20 g; and the doses of Taxol and RAP are 20 mg/kg, and 40 mg/kg, respectively.

CC(=O)O[C@H]1C(=O)[C@@]2(C)[C@H]([C@H](OC(=O)c3ccccc3)[C@]3(O)C[C@H](OC(=O)[C@H](O)[C@@H](NC(=O)c4ccccc4)c4ccccc4)C(C)=C1C3(C)C)[C@]1(OC(C)=O)CO[C@@H]1C[C@@H]2O [Taxol, paclitaxel]
survival rate at Day 55 (Day 55): 30%
anticancer effect compared to control group (RAP 40 mg/kg/day gavage since day 0, Taxol 20 mg/kg/week i.p. since day 17, tumor cells at day 7): significant anticancer effect
death at day 50 (day 50, when all the mice of Control group died): no death occurred
